Article PMC11496081, “The diversity of AMPA receptor inhibition mechanisms among amidine-containing compounds” (Frontiers in Pharmacology, 2024)
“And” between values parts separate entries of the source, which are not always exact repeats. Identical values can stand only once. Like-named read-outs stand apart in the source and are kept apart here.

How the values were obtained:
[1] = target: T1, calcium-impermeable AMPA receptors (CI-AMPARs) (Rattus norvegicus, UniProt P19490+P19491, Q607R); assay: Whole-cell patch clamp, kainate-induced currents in hippocampal CA1 pyramidal neurons; format: cell-based; conditions: for δb CI-AMPAR: fixed δb values obtained from the CP-AMPARs data; for inhibition at 200 µM: furamidine 50 µM
T1 sequence (P19491 22-883 Q607R): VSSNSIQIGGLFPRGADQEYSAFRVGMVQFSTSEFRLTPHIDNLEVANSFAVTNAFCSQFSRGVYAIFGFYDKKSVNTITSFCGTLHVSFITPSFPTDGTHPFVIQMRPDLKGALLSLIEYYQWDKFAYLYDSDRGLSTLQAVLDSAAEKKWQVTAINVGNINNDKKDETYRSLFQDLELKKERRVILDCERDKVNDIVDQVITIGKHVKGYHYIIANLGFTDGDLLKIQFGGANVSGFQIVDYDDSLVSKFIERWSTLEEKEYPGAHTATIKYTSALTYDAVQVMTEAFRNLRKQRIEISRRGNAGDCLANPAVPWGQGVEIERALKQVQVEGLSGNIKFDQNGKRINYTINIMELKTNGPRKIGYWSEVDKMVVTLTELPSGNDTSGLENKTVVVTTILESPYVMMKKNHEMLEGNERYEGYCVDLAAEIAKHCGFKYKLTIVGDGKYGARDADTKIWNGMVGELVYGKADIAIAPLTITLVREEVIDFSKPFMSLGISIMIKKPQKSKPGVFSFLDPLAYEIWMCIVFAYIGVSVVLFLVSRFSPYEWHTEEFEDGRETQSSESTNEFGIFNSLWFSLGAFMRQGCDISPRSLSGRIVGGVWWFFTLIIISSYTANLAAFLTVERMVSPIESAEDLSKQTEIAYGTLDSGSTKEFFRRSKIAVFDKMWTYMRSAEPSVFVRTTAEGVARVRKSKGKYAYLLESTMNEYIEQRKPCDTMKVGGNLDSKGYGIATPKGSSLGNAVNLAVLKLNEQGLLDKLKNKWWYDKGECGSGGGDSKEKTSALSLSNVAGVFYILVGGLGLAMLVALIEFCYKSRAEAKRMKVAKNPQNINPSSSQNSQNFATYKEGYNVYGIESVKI
T1 sequence (P19490 19-907): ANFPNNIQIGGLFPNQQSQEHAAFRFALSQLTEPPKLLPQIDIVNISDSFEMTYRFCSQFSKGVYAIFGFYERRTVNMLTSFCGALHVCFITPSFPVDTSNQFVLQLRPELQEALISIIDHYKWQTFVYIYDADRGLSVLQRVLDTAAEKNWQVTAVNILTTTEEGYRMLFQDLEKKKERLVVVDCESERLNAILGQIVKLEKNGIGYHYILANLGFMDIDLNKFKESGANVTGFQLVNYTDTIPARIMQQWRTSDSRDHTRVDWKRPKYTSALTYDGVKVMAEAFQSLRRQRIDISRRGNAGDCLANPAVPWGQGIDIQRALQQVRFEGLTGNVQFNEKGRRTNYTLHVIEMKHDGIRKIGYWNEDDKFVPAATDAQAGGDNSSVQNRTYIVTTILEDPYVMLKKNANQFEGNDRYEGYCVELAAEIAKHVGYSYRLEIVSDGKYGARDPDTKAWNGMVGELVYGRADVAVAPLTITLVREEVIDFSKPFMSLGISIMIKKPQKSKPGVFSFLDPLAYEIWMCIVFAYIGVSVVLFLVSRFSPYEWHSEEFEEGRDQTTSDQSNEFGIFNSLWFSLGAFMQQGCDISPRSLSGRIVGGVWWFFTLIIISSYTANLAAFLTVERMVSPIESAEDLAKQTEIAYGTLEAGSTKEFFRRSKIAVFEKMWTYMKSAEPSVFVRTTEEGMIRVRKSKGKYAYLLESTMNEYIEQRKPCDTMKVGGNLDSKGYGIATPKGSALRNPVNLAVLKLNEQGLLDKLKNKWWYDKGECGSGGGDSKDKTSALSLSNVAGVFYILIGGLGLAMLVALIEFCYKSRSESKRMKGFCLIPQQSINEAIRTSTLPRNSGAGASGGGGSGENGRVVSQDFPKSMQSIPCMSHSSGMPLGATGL
Description: (§1) The rats were anesthetised with sevoflurane and then decapitated. […] All experiments were performed at room temperature.
(§2) Pentamidine isethionate (P-155) was from Alomone laboratories.
(§3) The voltage dependence of compounds action was analysed by Woodhull model for permeable blockers ([Woodhull, 1973]; [Tikhonova et al., 2008]). According to this model, the voltage dependence of steady-state blockade is given by Equation 1: BV=100%−100%/1+C/KbexpF/RT zδb V+Kp exp−F/RT zδp V (1) where V is voltage, B is level of block (%), C is concentration of the drug, z is molecular charge, and R, F and T have their standard meanings. Kb is the affinity of a drug for the channel. The δb value reflects the fraction of membrane electric field that the charged blocking molecule crosses on its pathway between the external media and the binding site in the channel (where the total field has a value of 1). Parameters Kp and δp describe permeation through the channel. […] For this reason, we used Equation 2, which takes into account the possibility of inhibitor to bind also at superficial site ([Nikolaev and Tikhonov, 2023]), assuming that the binding to the deep and superficial site is independent. BV=100%−100%/1+C/KbexpF/RT zδb V+Kp exp−F/RT zδp V+C/Kvin+C^2/Kvin KbexpF/RT zδb V+Kp exp−F/RT zδp V (2)
(§4) All experimental data are presented as the mean ± SD estimated from at least four experiments (cells). Significance of the effects was tested with t-tests. Differences were considered significant at p < 0.05. Concentration dependencies were approximated by Hill equation. Voltage dependencies were approximated by Equation 1 or 2. […] Then all data was pooled together and the parameters of voltage dependence were estimated using the fitting of all measurements. For each holding potential ≥4 cells were used. Voltage dependence parameters (binding constants and δb values) are shown as the result of the fitting ± approximation errors.

[2] = target: T1, calcium-impermeable AMPA receptors (CI-AMPARs); assay: Whole-cell patch clamp, glutamate-induced currents in hippocampal CA1 pyramidal neurons
Description: The rats were anesthetised with sevoflurane and then decapitated. The brains were brought out quickly and cooled to 2°C–4°C. Transverse striatal or hippocampal slices were cut using a vibratome (Campden Instruments) and stored in a solution containing (in mM): NaCl 124, KCl 5, CaCl2 1.3, MgCl2 2.0, NaHCO3 26, NaH2PO4 1.24, D-glucose 10, aerated with carbogen (95% O2, 5% CO2). All experiments were performed at room temperature.
Vibrodissociation method ([Vorobjev, 1991]; [Jun et al., 2011]) was used to free CA1 pyramidal neurons or giant striatal interneurons from slices. This method allows isolating cells without enzymatic treatment and keep them in more native state. […] The antagonism of CI-AMPARs was studied on pyramidal neurons from the CA1 area of the hippocampus. These cells were isolated from the stratum pyramidale and distinguished from non-pyramidal cells on the basis of pyramidal-like somata and preserved apical dendrites.
To record membrane currents in response to applications of kainate or glutamate the whole-cell configuration of patch clamp technique was used. Series resistance (<20 MΩ) was compensated by 70%–80% and monitored during experiments. […]
AMPA receptors were activated with 100 µM kainate or 1 mM glutamate unless otherwise stated. […] The effects of compounds on steady-state currents for different drug concentrations were measured at −80 mV holding voltages. […]

[3] = test system: calcium-permeable AMPA receptors (CP-AMPARs); assay: Whole-cell patch clamp, block of kainate-induced currents in striatal giant interneurons; format: cell-based, rat
Description: as §1, §2, §3, §4

[4] = test system: NMDA receptors; design: method as in Zhigulin and Barygin, 2023; conditions: ref Zhigulin and Barygin, 2023, cited from earlier work; for δb NMDAR / Kb: channel site; for Kb: read-out: Kb, μM NMDAR; for Kd: superficial site, read-out: Kvin, μM NMDAR; for IC50: read-out: IC50 at -80mV, μM NMDAR
[5] = test system: calcium-permeable AMPA receptors (CP-AMPARs); design: method as in Zhigulin et al., 2022; conditions: −80 mV, ref Zhigulin et al., 2022, cited from earlier work
[6] = target: T1, calcium-impermeable AMPA receptors (CI-AMPARs); design: method as in Zhigulin et al., 2022; conditions: 100 µM compound, −80 mV; ref Zhigulin et al., 2022; cited from earlier work
[7] = 100 µM compound, kainate-induced current, −80 mV
[8] = kainate-induced current, −80 mV; read-out: IC50, µM CP-AMPARs
[9] = voltage dependence fitted by eq. 1; read-out: Kb, µM CP-AMPARs (binding to channel site)
[10] = voltage dependence −140 to +40 mV fitted by eq. 1
[11] = −80 mV; IEM-1925 1 µM, pentamidine 50 μM

Compound	Block at 100 µM, % CP-AMPARs [3, 7]	IC50 [3, 8] [µM]	Kb [3, 9] [µM]	δb CP-AMPARs (fraction of membrane electric field to channel site) [3, 10]	δb CI-AMPAR [1]	δb NMDAR [4]	Kb [4] [µM]	Kd [4] [µM]	IC50 ([4]; −80 mV) [µM]	further results
NS(=O)(=O)c1cc2c(cc1Cl)NC(C1CC3C=CC1C3)NS2(=O)=O (stereo not drawn) [cyclothiazide]										fold induction at 100 µM ([1]; read-out: increase in current at 50 µM kainate): 8 ± 2; fold induction at 100 µM ([1]; read-out: potentiation of responses evoked by 100 µM kainate): 6 ± 3; fold induction at 100 µM ([2]; read-out: enhancement of glutamate-induced currents): 12 ± 3
N=C(N)c1ccc2cc(OC(=O)c3ccc(NC4=NCCN4)cc3)ccc2c1 [Sepimostat]	66 ± 5 (n=4) %	56 ± 6	71 ± 9	0.88 ± 0.12 and 0.9	0.9	0.55	102	7	3.5	inhibition remaining in trapping protocol after 10 s without kainate ([3]; 300 µM sepimostat): 21% ± 2%; recovery (washout) kinetics τ, CP-AMPARs ([3]; in presence of kainate): 1.5 ± 0.3 s; IC50 ([3]; kainate-induced current, −80 mV; listed as sepimostat; read-out: IC50, µM CP-AMPARs): ~55 µM; δb CP-AMPARs (fraction of membrane electric field to channel site) ([3]; voltage dependence −140 to +40 mV fitted by eq. 1; listed as sepimostat): ~0.9; inhibition at 100 µM ([1]; 100 µM compound, kainate-induced current, −80 mV, read-out: Block at 100 µM, % CI-AMPARs): 37 ± 3%
N=C(N)c1ccc2cc(OC(=O)c3ccc(N=C(N)N)cc3)ccc2c1 [Nafamostat]	60 ± 11 (n=4) %	55 ± 24	9 ± 4	0.76 ± 0.16 and 0.75	0.75	0.55	11	3	0.2	IC50 ([3]; kainate-induced current, −80 mV; listed as nafamostat; read-out: IC50, µM CP-AMPARs): ~55 µM; Kb ([3]; voltage dependence fitted by eq. 1; listed as nafamostat; read-out: Kb, µM CP-AMPARs (binding to channel site)): 5 to 10 µM; δb CP-AMPARs (fraction of membrane electric field to channel site) ([3]; voltage dependence −140 to +40 mV fitted by eq. 1; listed as nafamostat): around 0.7
N=C(N)c1ccc(-c2ccc(-c3ccc(C(=N)N)cc3)o2)cc1 [Furamidine]	79 ± 7 (n=4) %			0.72 ± 0.15 and 0.7	0.7	0.55	22	3.3	0.64	Block at 100 µM, % CP-AMPARs ([3]; 100 µM compound, kainate-induced current, −80 mV; listed as furamidine): 75–80%; IC50 ([3]; read-out: IC50, µM CP-AMPARs; kainate-induced current, −80 mV): 38 µM; Kb ([3]; read-out: Kb, µM CP-AMPARs (binding to channel site); voltage dependence fitted by eq. 1): 15 µM; δb CP-AMPARs (fraction of membrane electric field to channel site) ([3]; voltage dependence −140 to +40 mV fitted by eq. 1; listed as furamidine): around 0.7
N#Cc1ccccc1-c1cc(-c2ccccn2)cn(-c2ccccc2)c1=O [perampanel]										inhibition of CP-AMPARs in presence of kainate ([3]; 100 nM perampanel): 50%–70%; inhibition at 0.1 µM ([1]; read-out: inhibition of kainate-induced CI-AMPAR currents in absence of cyclothiazide, 100 nM perampanel): 74%
CN(C)C(=O)COC(=O)Cc1ccc(OC(=O)c2ccc(NC(=N)N)cc2)cc1 [Camostat]	16 ± 4 (n=4) %	> 100							> 100	Block at 100 µM, % CP-AMPARs ([3]; 100 µM compound, kainate-induced current, −80 mV; listed as camostat): < 50%; IC50 at -80mV, μM NMDAR ([4]; −80 mV): ineffective
CCOC(=O)c1ccc(OC(=O)CCCCCNC(=N)N)cc1 [Gabexate]	30 ± 4 (n=4) %	> 100				0.55	800	25	16	
IEM-1925										inhibition of CP-AMPARs with 50 µM kainate [3, 11]: 40% ± 3%; inhibition of CP-AMPARs with 500 µM kainate [3, 11]: 48% ± 5%
N=C(N)c1ccc(-c2cc3ccc(C(=N)N)cc3[nH]2)cc1 [DAPI, 4′,6-diamidino-2-phenylindole]	83 ± 4 (n=4) %	27 ± 1	5.4 ± 1.2		0.65	0.55	5000	3.2	3.1	Block at 100 µM, % CI-AMPARs [1, 7]: 64 ± 5 (n=6) %; Kb ([1]; fitted by eq. 2 with fixed δb values from CP-AMPARs data, read-out: Kb, µM CI-AMPARs (binding to channel site)): 24 ± 7 µM; Kd ([1]; fitted by eq. 2 with fixed δb values from CP-AMPARs data, read-out: Kvin, µM CI-AMPARs (binding to superficial site)): 62 ± 6 µM; IC50 ([1]; kainate-induced current, −80 mV): 59 ± 9 µM
N=C(N)c1ccc(OCCCCCOc2ccc(C(=N)N)cc2)cc1 [Pentamidine]	70 ± 4 (n=4) %	43 ± 9	36 ± 4	0.49 ± 0.04 and 0.5	0.5	0.7	27	10	0.41	washout kinetics τ of perampanel and pentamidine mixture ([3]; 100 nM perampanel + 500 µM pentamidine, in presence of kainate): 620 ± 470 ms; block of CP-AMPARs at +40 mV ([3]; 100 μM, +40 mV, representative example): 27%; block of CP-AMPARs at −40 mV ([3]; 100 μM, −40 mV, representative example): 78%; rectification index (current ratio between +40 mV and −40 mV) ([3]; 10 mM in pipette solution, kainate-induced responses): 0.10 ± 0.04; washout kinetics τ, CP-AMPARs ([3]; in presence of kainate): 120 ± 60 ms; inhibition at 100 µM ([1]; read-out: Block at 100 µM, % CI-AMPARs, 100 µM compound, kainate-induced current, −80 mV): 39 ± 5%; inhibition at 200 µM ([1]; read-out: block of CI-AMPARs with 50 µM kainate, −80 mV, pentamidine 200 µM, no cyclothiazide): 38%; inhibition at 200 µM ([1]; read-out: block of CI-AMPARs with 500 µM kainate, −80 mV, pentamidine 200 μM): 61%; remaining activity at 100 µM ([2]; read-out: Idrug/Icontrol, glutamate-induced steady-state current): 140 ± 10%
N=C(N)c1ccc(/N=N/Nc2ccc(C(=N)N)cc2)cc1 [Diminazene]			47 ± 5	0.64 ± 0.05 and 0.65	0.65	0.55	1500	14	13	δb CP-AMPARs (fraction of membrane electric field to channel site) ([3]; voltage dependence −140 to +40 mV fitted by eq. 1; listed as diminazene): around 0.7; Block at 100 µM, % CP-AMPARs ([5]; 100 µM compound): 69 ± 4 %; IC50 [5]: 60 ± 11 µM; Block at 100 µM, % CI-AMPARs [6]: 31 ± 7 %
